According to patent publication US12089595B2, “Pseudomonas strains and their metabolites to control plant diseases” (T3 Bioscience, Inc., priority 2020, dated 2024):
Values after ≈ are worked out from the molar mass of the structure shown. “Also recorded” adds a separate entry of the source.

Assays:
E coli O157:H7 = experiment: MIC antimicrobial assay (CLSI, 96 well plates); format: cell-based
[1] = tested on: Xanthomonas campestris pv. vesicatoria XV-16; experiment: MIC antimicrobial assay (CLSI, 96 well plates); format: cell-based; details: Xanthomonas campestris pv. vesicatoria XV-16 (Tomato bacterial spot)
[2] = tested on: Phytophthora infestans Pi 1306; experiment: microbe, parasite or virus in culture; format: cell-based
Venturia inaequalis = experiment: Antifungal assay on amended PDA plates; format: cell-based
Description: The fungus Venturia inaqualis that causes apple scab was maintained on PDA agar in the dark at room temperature (˜24° C.). A mixture of conidia and mycelia suspension (in 0.01 M PBS) was harvested from PDA (Potato dextrose agar). Ten μL the conidia and mycelia suspension were dropped onto biocontrol bacteria, RejuAgro A, or RejuAgro A amended plates. The control was PDA plates without the addition of the biocontrol bacteria or RejuAgro A or B. […]

[3] = tested on: Mycosphaerella fijiensis 10CR-25; experiment: Antimicrobial effect in PDA agar medium (6-well plate); format: cell-based
Description: The antimicrobial effect of RejuAgro A on Mycosphaerella fijiensis was examined by adding final concentrations of 60 and 600 μg/mL of HPLC purified RejuAgro A respectively into the PDA agar medium. A 480 μL of 0.5 mg/mL or 5 mg/mL RejuAgro A was added into 3.52 mL of PDA in a well of a 6-well plate to make the final concentration of RejuAgro A at 60 (FIG. 12, middle well (panel A)) and 600 μg/mL (FIG. 12, left well (panel B)) respectively. The plate was gently shaken to let the compound dissolved.

[4] = tested on: the other soft pathogenetic bacteria (Pectobacterium, Dickeya dadantii); experiment: MIC antimicrobial assay; format: cell-based
P. infestans = experiment: microbe, parasite or virus in culture; format: cell-based; details: Phytophthora infestans
strain 0617-T307 = experiment: Bioactive fractions tested against the producer strain; format: cell-based, Pseudomonas soli; details: crude extracts 100 μg/mL; flash-RejuAgro A 20 μg/mL; HPLC-RejuAgro A 10 μg/mL
Description: (§1) Two assays were used for the antimicrobial test of 0617-T307 cell broth and metabolites. One is plate diffusion assay and the other one is microplate assay. LB plate was used for the plate diffusion assay of the antimicrobial activity of RejuAgro A containing fractions and cell broths against E. amylovora (Table 3).
(§2) The bioactive fractions (crude extracts, 100 μg/mL; flash-RejuAgro A, 20 μg/mL; HPLC-RejuAgro A, 10 μg/mL) were tested against strains 0617-T307, Ea and Xac.

Ea = experiment: Bioactive fractions tested against Ea; format: cell-based, Erwinia amylovora; details: crude extracts 100 μg/mL; flash-RejuAgro A 20 μg/mL; HPLC-RejuAgro A 10 μg/mL
Description: as §1, §2

Xac = experiment: Bioactive fractions tested against Xac; format: cell-based, Xanthomonas axonopodis pv. citri; details: crude extracts 100 μg/mL; flash-RejuAgro A 20 μg/mL; HPLC-RejuAgro A 10 μg/mL
[5] = tested on: Xanthomonas oryzae pv. oryzicola (Xon507); experiment: microbe, parasite or virus in culture; format: cell-based; details: 44 h, read-out: Inhibition zone
[6] = tested on: Liberibacter crescens BT-1; experiment: microbe, parasite or virus in culture; format: cell-based
Septoria tritici = experiment: microbe, parasite or virus in culture; format: cell-based; details: Zymoseptoria tritici, 144 h
Colletotrichum dematium = experiment: microbe, parasite or virus in culture; format: cell-based; details: 144 h
[7] = tested on: Fusarium oxysporum f. sp. Melonsis; experiment: microbe, parasite or virus in culture; format: cell-based; details: 144 h
Magnaporthe oryzae = experiment: microbe, parasite or virus in culture; format: cell-based; details: Pyricularia oryzae, 144 h
[8] = Stability of RejuAgro A in the culture (LCMS); format: physicochemical; details: room temperature; 40-h culture of 0617-T307 in YME; tested by LCMS
Description: RejuAgro A can be present and stable in the culture at room temperature for at least 4 weeks, as tested by LCMS for 40-h culture obtained by growing 0617-T307 in YME media on a shaker at 16° C. and 220 rpm.

Solubility in solvents = format: physicochemical; details: methanol, chloroform
Description: Preparative HPLC (Prep-HPLC) purification of the fraction 3840 and 5054 lead to the discovery of 15 mg yellow colored compound RejuAgro A (Rt17.5) and 103.3 mg dark-green colored compound RejuAgro B, respectively. […] The structures of the two compounds have been investigated by High resolution mass spectrometry (HR-MS), infrared (IR), Ultraviolet (UV), 1D and 2D Nuclear magnetic resonance (NMR) as well as X-ray crystal structure analysis.

[9] = tested on: Xanthomonas citri pv. citri citrange (XW19); experiment: Paper disc inhibition zone on PSG agar plates; details: 44 h, read-out: Inhibition zone
[10] = tested on: Ralstonia solanacearum K60; experiment: microbe, parasite or virus in culture; format: cell-based; details: K60, Ralstonia solanacearum K60 (bacterial wilt)
[11] = tested on: Ralstonia solanacearum Pss4; experiment: microbe, parasite or virus in culture; format: cell-based; details: PSS4, Ralstonia solanacearum Pss4 (bacterial wilt)
E. amylovora Ea110 = experiment: Field assay on apple trees in the orchard; format: in vivo, Erwinia amylovora; details: apple orchard 2019; bacteria at 5×10^8 CFU/mL; Ea110 5×10^6 CFU/mL; water control 32.9%
Excerpt: For the field assay, biological control bacteria (0617-T307, 0118-T319, 0318-T327, 0418-T328; see Table 2) that produce RejuAgro A were applied on the flowers of the apple trees in the orchard on May 5th and May 6th of 2019 (40% and 70% bloom of apple flowers) at the concentration of 5×10^8 CFU/mL. The bacterial pathogen E. amylovora Ea110 was inoculated on May 7th (90% bloom), at the concentration of 5×10^6 CFU/mL. […] Compared with streptomycin, the biocontrol bacteria that produce RejuAgro A have similar or better efficacy on controlling fire blight in the apple orchards.

Which results are given for `CSC1=C(C)C(=O)C(=O)NC1=O` [RejuAgro A]?
MIC (E coli O157:H7): 40 µg/mL (≈ 216 µM); MIC [1]: 2.5 µg/mL (≈ 13.5 µM); MIC [2]: 40 µg/mL (≈ 216 µM); growth of V. inaequalis on PDA plates (Venturia inaequalis; 40-80 μg/mL in PDA plate, day 14 (figure)): can inhibit the growth; also recorded: cannot grow; inhibition at 80 µg/mL (Venturia inaequalis; Venturia inaequalis): 100%; MIC (Venturia inaequalis; Venturia inaequalis (Apple scab)): 80 µg/mL (≈ 432 µM); growth of M. fijiensis on PDA agar ([3]; 60 μg/mL): growth; growth of M. fijiensis on PDA agar ([3]; 600 μg/mL, two weeks post-inoculation): complete inhibition; also recorded: inhibitory growth; MIC ([3]; Pseudocercospora fijiensis, 10CR25, Mycosphaerella fijiensis 10CR-25 (black sigatoka of Banana)): 600 µg/mL (≈ 3240 µM); MIC [4]: 20 to 40 µg/mL (≈ 108 to 216 µM); inhibition at 40 µg/mL (P. infestans): 100%; inhibition of growth of strain 0617-T307 (strain 0617-T307): not able to inhibit the growth; inhibition of growth of Ea (Ea): almost abolish the growth; inhibition of growth of Xac (Xac): almost abolish the growth; zone of inhibition at 5.5 µg/mL [5]: 2.7 ± 0.6 mm; zone of inhibition at 11.1 µg/mL [5]: 5 ± 1 mm; zone of inhibition at 22.1 µg/mL [5]: 7.3 ± 1.5 mm; zone of inhibition at 33.2 µg/mL [5]: 8.3 ± 1.5 mm; zone of inhibition at 55.4 µg/mL [5]: 9.3 ± 0.6 mm; zone of inhibition at 110.7 µg/mL [5]: 13.3 ± 1.2 mm; growth of L. crescens ([6]; 1 mg/L): partial inhibition of growth; growth of L. crescens ([6]; 2.5 mg/L, for 16 days): inhibition of growth; growth of L. crescens BT1 ([6]; BM7 medium at 28° C., 10 mg/L, 20 mg/L, and 40 mg/L): inhibition of growth; MIC ([6]; Liberibacter crescens, BT1, read-out: minimal inhibitory concentration (MIC)): 2.5 µg/mL (≈ 13.5 µM); MIC (Septoria tritici): 100 µg/mL (≈ 540 µM); MIC (Colletotrichum dematium): 50 µg/mL (≈ 270 µM); MIC [7]: 100 µg/mL (≈ 540 µM); MIC (Magnaporthe oryzae): 75 µg/mL (≈ 405 µM); present and stable in the culture [8]: at least 4 weeks; solubility in methanol and chloroform (Solubility in solvents): can be dissolved; zone of inhibition at 5.5 µg/mL [9]: 0 mm; zone of inhibition at 11.1 µg/mL [9]: 0 mm; zone of inhibition at 22.1 µg/mL [9]: 0 mm; zone of inhibition at 33.2 µg/mL [9]: 0 mm; zone of inhibition at 55.4 µg/mL [9]: 2.3 ± 0.6 mm; zone of inhibition at 110.7 µg/mL [9]: 2.7 ± 1.2 mm

For `[H]/N=C(/N)N[C@H]1[C@H](O)[C@@H](O)[C@H](O[C@@H]2O[C@@H](C)[C@](O)(C=O)[C@H]2O[C@@H]2O[C@@H](CO)[C@H](O)[C@@H](O)[C@@H]2NC)[C@@H](N/C(N)=N\[H])[C@@H]1O` [Streptomycin, reference compound], which MIC (E coli O157:H7) is on record?
Its MIC is 20 µg/mL (≈ 34.4 µM).

And the MIC [1]?
The MIC was 20 µg/mL (≈ 34.4 µM).

What about the MIC [10] of the same compound?
Its MIC is 12.5 µg/mL (≈ 21.5 µM).

And the MIC [11]?
Its MIC is 12.5 µg/mL (≈ 21.5 µM).

And the “percentage of diseased flower clusters” value (E. amylovora Ea110)?
Its value is 13.3%.
